# Measured values published in patent US20090069324A1, “CHEMICAL INHIBITORS OF BFL-1 AND RELATED METHODS” (The Burnham Institute, priority 2007, published 2009).
# Where “and” joins values, the source holds several entries; their conditions need not be identical. Equal values may be shown once.
# Experiments:
# Bfl-1 [1] = target: T1, Bfl-1 (Homo sapiens, UniProt Q16548); assay: Bfl-1 TR-FRET assay (FITC-Bid, Tb-anti-GST antibody); type: binding; details: for Bfl-1 TR-FRET assay, activity in words: Bfl-1/FITC-Bid
# T1 construct: lacking their C-terminal transmembrane domains (approximately last 20 amino-acids); made in house; host or cells: XL-1 Blue cells (E. coli), pGEX 4T-1
# T1 sequence (Q16548 1-155 limits assumed): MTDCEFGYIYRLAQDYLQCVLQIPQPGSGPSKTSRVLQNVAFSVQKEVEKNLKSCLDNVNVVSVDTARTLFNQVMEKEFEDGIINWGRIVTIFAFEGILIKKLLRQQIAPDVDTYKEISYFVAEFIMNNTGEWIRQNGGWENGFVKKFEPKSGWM
# Procedure: TR-FRET assay. For confirmation of FPA results, a TR-FRET assay utilizing terbium- (Tb-) labeled anti-GST antibody (Th-Ab) was developed. […] The reaction mixture was preincubated for 1 h, and TR-fluorescence (TRF) was measured on an M5 plate reader (Molecular Devices) using excitation at 340 nm and emission at […]. The measurements were averaged from 5 readings during 1 ms after an initial delay 0.1 ms. TR-FRET signal was calculated as the ratio of TR-Fluorescence at 520 nm to TR-Fluorescence at […].
# For Bfl-1 TR-FRET assays, Bfl-1 protein and FITC-Bid peptide (FITC-Ahx-[…]) (SEQ ID NO: 1) were utilized. Terbium-anti-GST antibody (Tb-anti-GST Ab) was obtained from Invitrogen (San Diego Calif.). The assay buffer contained 25 mM Bis-Tris, pH 7.0, 1 mM TCEP, and 0.005% Tween 20. The Tb-Ab buffer contained 2.5 nM Tb-anti-GST antibody in assay buffer. The Bfl-1/Th-Ab working solution contained 5 nM Bfl-1 in Th-Ab assay buffer. The solution was prepared fresh and kept on ice prior to use. The FITC-Bid working solution contained 5.6 nM FITC-Bid in assay buffer.
# For the Bfl-1 TR-FRET dose-response screening protocol, dose-response curves contained 10 concentrations of compounds obtained using 2-fold serial dilution. Compounds were serially diluted in 100% DMSO, and then diluted with water to 10% final DMSO concentration. A 4 μl aliquot of compounds in 10% DMSO was transferred into columns 3-22 of Greiner 384-well white small-volume plates. Columns 1-2 and 23-24 contained 4 μL of 10% DMSO.
# Columns 1-2 were reserved for positive controls, and 8 μL of Th-Ab buffer was added using a WellMate bulk dispenser (Matrix). An aliquot of 8 μL of Bfl-1/Th-Ab working solution was added to columns 3-24 of Greiner 384 well white plates using a WellMate bulk dispenser (Matrix). Columns 23-24 represented negative control wells. Plates were incubated for 1 h at 4° C. An 8 μL aliquot of freshly prepared FITC-Bid working solution was added to the whole plate using WellMate bulk dispenser (Matrix). Plates were incubated for 4 h at room temperature protected from direct light. Fluorescence was measured on the M5 plate reader (excitation: 340 nm, emission: 490 and 520 nm, cutoff: 475 and 515 nm, respectively) in Time Resolved (TR) mode with signal integrated for 1 ms after initial delay of 0.1 ms. TR-FRET signal was calculated as the ratio of TR-Fluorescence at 520 nm to TR-Fluorescence at 490 nm. Data analysis was performed using a sigmoidal dose-response equation through non-linear regression.
# Bfl-1 [2] = target: T1, Bfl-1; assay: Bfl-1 fluorescence polarization assay (FPA/FP), competition with FITC-Bid BH3 peptide; type: binding; details: for Bfl-1 FP assay, activity in words: Bfl-1/FITC-Bid
# Procedure: Fluorescence polarization assays (FPA). To determine the binding affinity of anti-apoptotic Bcl-2 polypeptides to FITC-conjugated Bid BH3 peptide, fluorescence polarization assays (FPAs) were performed according to published procedures (Zhai et al., Biochem. J. 376:229-236 (2003)). […] Fluorescence polarization was measured after 10 min using an Analyst™ AD Assay Detection System (LJL Biosystem, Sunnyvale, Calif.) in phosphate-buffered saline (PBS) (pH 7.4). The IC50 determinations were performed using GraphPad Prism software (GraphPad, Inc., San Diego, Calif.).
# Competition assays. Using the same procedure outlined above, 100 nM of GST-Bfl-1 protein were incubated with the compounds at 50 μM concentration for 30 min. Then, 5 nM of FITC-Bid BH3 peptide was added. Fluorescence polarization was measured after 10 min. […]
# [3] = Tables 7-8, Avg where the cell lists several determinations, read-out: Bfl-1 TR-FRET IC50
# [4] = Tables 7-8, Avg where the cell lists several determinations, read-out: Bfl-1 FPA IC50
# [5] = Tables 7-8, single values listed before the Avg, read-out: Bfl-1 TR-FRET IC50 (uM), individual determinations
# [6] = Tables 7-8, single values listed before the Avg, read-out: Bfl-1 FPA IC50 (uM), individual determinations
# [7] = Tables 7-8, Avg where the cell lists several determinations
# [8] = Tables 3-5, read-out: Bfl-1 TR FRET IC50
# [9] = Tables 3-5, read-out: Bfl-1 FP IC50
Structure (SMILES),IC50 (Bfl-1 [1]; [3]) [µM],IC50 (Bfl-1 [2]; [4]) [µM],IC50 (Bfl-1 [1]; [8]) [µM],IC50 (Bfl-1 [2]; [9]) [µM],also measured
CC(C)c1nnc(NC(=O)CCS(=O)(=O)c2nc(-c3cccs3)cc(C(F)(F)F)n2)s1 [ASN05990586],5.3,11.3,,,
COCC(C)NC(=O)CCS(=O)(=O)c1nc(-c2ccc(OC)cc2)cc(C(F)(F)F)n1 (stereo not drawn) [BAS03664947],19.6,20.6,,,
COc1ccc(N2C(=O)C(Cl)=C(Nc3c(C)n(C)n(-c4ccccc4)c3=O)C2=O)cc1 [Compound 3453-0809],> 100,82.2,,,
CCOC(=O)CS(=O)(=O)c1nc(-c2ccccc2)cc(C(F)(F)F)n1 [Compound 7663066],2.91,4.64,,,IC50 (Bfl-1 [1]; [5]): 1.18 µM and 4.63 µM; IC50 (Bfl-1 [2]; [6]): 2.63 µM and 2.4 µM and 5.42 µM and 8.1 µM
CCOC(=O)CCS(=O)(=O)c1nc(-c2ccccc2)cc(C(F)(F)F)n1 [Compound 7914223],4,7.9,,,
Cc1cc(NC(=O)CCS(=O)(=O)c2nc(-c3ccccc3)cc(C(F)(F)F)n2)no1 [Compound 7979496],9.2,14.6,,,
CCOC(=O)CS(=O)(=O)c1nc(-c2ccc(F)cc2)cc(C(F)(F)F)n1 [Compound 7979975],1.78,,,,IC50 (Bfl-1 [1]; [5]): 1.37 µM and 0.59 µM and 1.5 µM and 2.79 µM and 1.03 µM and 3.41 µM; IC50 (Bfl-1 [2]; [6]): 1.98 µM and 1.27 µM and 0.695 µM and 1.72 µM and 0.866 µM and 3.33 µM and 4.4 µM and 6.43 µM
COc1ccccc1-c1cc(C(F)(F)F)nc(S(=O)(=O)CCCC(=O)N2CCOCC2)n1 [Compound 7990929],19.1,21.5,,,
COc1ccccc1-c1cc(C(F)(F)F)nc(S(=O)(=O)CCCC(=O)NC(C)C)n1 [Compound C071-0355],,,,,Bfl-1 TR-FRET IC50 (uM) (Bfl-1 [1]; [7]): nodisplacement; Bfl-1 FPA IC50 (uM) (Bfl-1 [2]; [7]): nodisplacement
COc1ccccc1-c1cc(C(F)(F)F)nc(S(=O)(=O)CCCC(=O)N2CCCCC2C)n1 (stereo not drawn) [Compound C071-0367],12.8,14.7,,,
COc1ccccc1-c1cc(C(F)(F)F)nc(S(=O)(=O)CCCC(=O)Nc2cc(C)on2)n1 [Compound C071-0415],,,,,Bfl-1 TR-FRET IC50 (uM) (Bfl-1 [1]; [7]): nodisplacement; Bfl-1 FPA IC50 (uM) (Bfl-1 [2]; [7]): nodisplacement
Cc1cc(NC(=O)CCCS(=O)(=O)c2nc(-c3cccs3)cc(C(F)(F)F)n2)no1 [Compound C071-0649],11.4,40.4,,,
CS(=O)(=O)c1nc(-c2ccccc2)cc(C(F)(F)F)n1 [Compound C164-0003],,,,,Bfl-1 TR-FRET IC50 (uM) (Bfl-1 [1]; [7]): nodisplacement; Bfl-1 FPA IC50 (uM) (Bfl-1 [2]; [7]): nodisplacement
CS(=O)(=O)c1nc(-c2cccs2)cc(C(F)(F)F)n1 [Compound C164-0005],15.6,6.3,,,
CS(=O)(=O)c1nc(-c2ccco2)cc(C(F)(F)F)n1 [Compound C164-0006],6,7.2,,,
COc1ccc(-c2cc(C(F)(F)F)nc(S(C)(=O)=O)n2)c(OC)c1 [Compound C164-0014],6.38,25.1,,,IC50 (Bfl-1 [1]; [5]): 5.29 µM and 3.73 µM and 10.1 µM; IC50 (Bfl-1 [2]; [6]): 40.7 µM and 5.92 µM and 27.2 µM and 28.8 µM and 22.9 µM
CN1CCN(C2=CC(=O)N(c3ccc(Cl)cc3)C2=O)CC1 [MLS-0066987],,,,,"Bfl-1 TR-FRET assay, activity in words (Bfl-1 [1]): inactive; Bfl-1 FP assay, activity in words (Bfl-1 [2]): inactive"
O=C1C(Cl)=C(N2CCCCC2)C(=O)N1c1ccc(Cl)c(Cl)c1 [MLS-0066990],,,1.3,,Bfl-1 FP IC50 (uM) (Bfl-1 [2]; Tables 3-5): no fit
CN1CCN(C2CC(=O)N(c3ccc(Cl)c(Cl)c3)C2=O)CC1 (stereo not drawn) [MLS-0066991],,,,,"Bfl-1 TR-FRET assay, activity in words (Bfl-1 [1]): inactive; Bfl-1 FP assay, activity in words (Bfl-1 [2]): inactive"
O=C1C(Cl)=C(N2CCOCC2)C(=O)N1c1ccc(Cl)c(Cl)c1 [MLS-0067124],,,,1.41,"IC50 (Bfl-1 [1]; text b265, read-out: IC50 in the TR-FRET assay): 1.14 µM; IC50 (Bfl-1 [2]; text b265, read-out: IC50 in the FP assay): 1.4 µM"

Structure (SMILES),IC50 (Bfl-1 [1]; [3]) [µM],IC50 (Bfl-1 [2]; [4]) [µM],IC50 (Bfl-1 [1]; [8]) [µM],IC50 (Bfl-1 [2]; [9]) [µM],also measured
O=C1C(Cl)=C(N2CCCC2)C(=O)N1c1ccc(Cl)c(Cl)c1 [MLS-0067126],,,,,Bfl-1 TR FRET IC50 (uM) (Bfl-1 [1]; Tables 3-5): no fit; Bfl-1 FP IC50 (uM) (Bfl-1 [2]; Tables 3-5): no fit
COCCNC1=C(Cl)C(=O)N(c2ccc(Cl)c(Cl)c2)C1=O [MLS-0067127],,,4.96,12.6,
O=C1C(Cl)=C(Nc2ccccc2)C(=O)N1c1ccc(Cl)c(Cl)c1 [MLS-0067128],,,,,Bfl-1 TR FRET IC50 (uM) (Bfl-1 [1]; Tables 3-5): no fit; Bfl-1 FP IC50 (uM) (Bfl-1 [2]; Tables 3-5): no fit
CN1CCN(C2=C(Cl)C(=O)N(c3cc(Cl)cc(Cl)c3)C2=O)CC1 [MLS-0090828],,,1.66,2.44,
CN1CCN(C2=C(Cl)C(=O)N(c3ccc(Cl)cc3Cl)C2=O)CC1 [MLS-0090829],,,1.36,2.62,
CN1CCN(C2=C(Cl)C(=O)N(c3c(Cl)cccc3Cl)C2=O)CC1 [MLS-0090830],,,3.72,13.7,
CN1CCN(C2=C(Cl)C(=O)N(c3cccc(Cl)c3Cl)C2=O)CC1 [MLS-0090831],,,2.56,8.74,
Cc1ccc(Cl)c(N2C(=O)C(Cl)=C(N3CCN(C)CC3)C2=O)c1Cl [MLS-0090832],,,11.1,23.9,
CN1CCN(C2=C(Cl)C(=O)N(c3ccccc3Cl)C2=O)CC1 [MLS-0090833],,,1.45,2.16,
CN1CCN(C2=C(Cl)C(=O)N(c3cccc(Cl)c3)C2=O)CC1 [MLS-0090834],,,1.17,2.15,
C[C@@H]1CN(C2=C(Cl)C(=O)N(c3ccc(Cl)c(Cl)c3)C2=O)CCN1 [MLS-0090857],,,1.03,1.16,
C[C@H]1CN(C2=C(Cl)C(=O)N(c3ccc(Cl)c(Cl)c3)C2=O)CCN1 [MLS-0090858],,,1.25,1.32,
O=C1C(Cl)=C(N2CCN(C/C=C/c3ccccc3)CC2)C(=O)N1c1ccc(Cl)c(Cl)c1 [MLS-0090859],,,0.73,0.59,
CCN1CCN(C2=C(Cl)C(=O)N(c3ccc(Cl)c(Cl)c3)C2=O)CC1 [MLS-0090860],,,0.97,1.67,
O=C1C(Cl)=C(N2CCN(Cc3ccc4c(c3)OCO4)CC2)C(=O)N1c1ccc(Cl)c(Cl)c1 [MLS-0090865],,,2.14,4.07,
O=C1C(Cl)=C(N2CCN(Cc3ccccc3)CC2)C(=O)N1c1ccc(Cl)c(Cl)c1 [MLS-0090866],,,1.64,1.62,
O=C1C(Cl)=C(N2CCN(c3ncccn3)CC2)C(=O)N1c1ccc(Cl)c(Cl)c1 [MLS-0090868],,,2.46,1.9,
O=C1C(Cl)=C(N2CCN(CCO)CC2)C(=O)N1c1ccc(Cl)c(Cl)c1 [MLS-0090874],,,0.59,0.56,
CC1C(=O)NCCN1C1=C(Cl)C(=O)N(c2ccc(Cl)c(Cl)c2)C1=O (stereo not drawn) [MLS-0090884],,,2.03,5.63,
